The target in one assay is BTK (Homo sapiens (Human), UniProt Q06187). Briefly: Btk in vitro inhibitory activity (one of Method A TR-FRET, Method B electrophoretic mobility shift, Method C radiometric filter binding).
Chain of BTK (Q06187 whole entry): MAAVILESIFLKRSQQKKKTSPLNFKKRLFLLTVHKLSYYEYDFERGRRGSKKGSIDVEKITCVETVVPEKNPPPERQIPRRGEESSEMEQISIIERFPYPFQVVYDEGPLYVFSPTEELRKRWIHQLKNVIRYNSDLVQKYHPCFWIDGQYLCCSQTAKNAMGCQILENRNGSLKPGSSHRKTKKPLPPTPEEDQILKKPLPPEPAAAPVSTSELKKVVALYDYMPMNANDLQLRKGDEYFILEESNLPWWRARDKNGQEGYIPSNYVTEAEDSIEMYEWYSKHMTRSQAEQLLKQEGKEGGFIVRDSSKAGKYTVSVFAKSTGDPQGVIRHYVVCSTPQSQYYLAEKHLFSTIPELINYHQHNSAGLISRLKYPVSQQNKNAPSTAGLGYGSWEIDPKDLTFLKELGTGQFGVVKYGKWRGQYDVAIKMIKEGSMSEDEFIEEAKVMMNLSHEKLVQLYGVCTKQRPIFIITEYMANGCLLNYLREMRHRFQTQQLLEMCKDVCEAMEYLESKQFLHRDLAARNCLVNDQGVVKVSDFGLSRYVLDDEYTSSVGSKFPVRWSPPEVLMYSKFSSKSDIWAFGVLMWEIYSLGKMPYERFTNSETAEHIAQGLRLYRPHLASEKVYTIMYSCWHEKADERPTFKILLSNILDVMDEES
Conditions: not given
The format is biochemical.
As to `CC(C)(C)c1ccc(C(=O)N[C@@H]2CCCN(c3nnc(C(N)=O)c(Nc4ccc(S(C)(=O)=O)cc4)n3)C2)cc1` [Example 55, (R)-3-(3-(4-tert-butylbenzamido)piperidin-1-yl)-5-(4-(methylsulfonyl)phenylamino)-1,2,4-triazine-6-carboxamide], the IC50 (in general, the concentration at which inhibition is half-maximal) was 10 to 100 nM.

The same assay, now with this note: determined using one of the methods of Example 355a, 355b and 355c; read-out: BTK IC50.
Take `NC(=O)c1nnc(N2CCC[C@@H](NC(=O)c3ccc(Cl)s3)C2)nc1Nc1ccc(C(=O)N2CCOCC2)cc1` [Example 17, (R)-3-(3-(5-chlorothiophene-2-carboxamido)piperidin-1-yl)-5-(4-(morpholine-4-carbonyl)phenylamino)-1,2,4-triazine-6-carboxamide]: the IC50 is less than 10 nM.
In the case of `NC(=O)c1nnc(N2CCC[C@@H](NC(=O)c3ccn4ccnc4c3)C2)nc1Nc1ccc(C(=O)N2CCOCC2)cc1` [Example 20, (R)—N-(1-(6-carbamoyl-5-(4-(morpholine-4-carbonyl)phenylamino)-1,2,4-triazin-3-yl)piperidin-3-yl)imidazo[1,2-a]pyridine-7-carboxamide], the IC50 fell in the range of 10 to 100 nM.
As to `CC#CC(=O)N[C@@H]1CCCN(c2nnc(C(N)=O)c(Nc3ccc(C(=O)N4CCOCC4)cc3)n2)C1` [Example 23, (R)-3-(3-but-2-ynamidopiperidin-1-yl)-5-(4-(morpholine-4-carbonyl)phenylamino)-1,2,4-triazine-6-carboxamide], the IC50 was in the range of 10 to 100 nM.
On the same count and under the same terms, with `CC(C)C(=O)N[C@@H]1CCCN(c2nnc(C(N)=O)c(Nc3ccc(C(=O)N4CCOCC4)cc3)n2)C1` [Example 24, (R)-3-(3-isobutyramidopiperidin-1-yl)-5-(4-(morpholine-4-carbonyl)phenylamino)-1,2,4-triazine-6-carboxamide] the figure was 10 to 100 nM; with `NC(=O)c1nnc(N2CCC[C@@H](NC(=O)C3CC3)C2)nc1Nc1ccc(C(=O)N2CCOCC2)cc1` [Example 25, (R)-3-(3-(cyclopropanecarboxamido)piperidin-1-yl)-5-(4-(morpholine-4-carbonyl)phenylamino)-1,2,4-triazine-6-carboxamide], 10 to 100 nM; with `N#CC1(C(=O)N[C@@H]2CCCN(c3nnc(C(N)=O)c(Nc4ccc(C(=O)N5CCOCC5)cc4)n3)C2)CC1` [Example 28, (R)-3-(3-(1-cyanocyclopropanecarboxamido)piperidin-1-yl)-5-(4-(morpholine-4-carbonyl)phenylamino)-1,2,4-triazine-6-carboxamide], 10 to 100 nM.
Same read-out and setting: in the case of `NC(=O)c1nnc(N2CCC[C@@H](NC(=O)C3CCCC3)C2)nc1Nc1ccc(C(=O)N2CCOCC2)cc1` [Example 29, (R)-3-(3-(cyclopentanecarboxamido)piperidin-1-yl)-5-(4-(morpholine-4-carbonyl)phenylamino)-1,2,4-triazine-6-carboxamide] it was 10 to 100 nM.
On the same count and under the same terms, in the case of `NC(=O)c1nnc(N2CCC[C@@H](NC(=O)C3CCOCC3)C2)nc1Nc1ccc(C(=O)N2CCOCC2)cc1` [Example 30, (R)-5-(4-(morpholine-4-carbonyl)phenylamino)-3-(3-(tetrahydro-2H-pyran-4-carboxamido)piperidin-1-yl)-1,2,4-triazine-6-carboxamide] it was 10 to 100 nM.
In the case of `CN1CCC(C(=O)N[C@@H]2CCCN(c3nnc(C(N)=O)c(Nc4ccc(C(=O)N5CCOCC5)cc4)n3)C2)CC1` [Example 31, (R)-3-(3-(1-methylpiperidine-4-carboxamido)piperidin-1-yl)-5-(4-(morpholine-4-carbonyl)phenylamino)-1,2,4-triazine-6-carboxamide], the concentration for half-maximal inhibition (IC50) lay within 10 to 100 nM.
Consider `NC(=O)c1nnc(N2CCC[C@@H](NC(=O)C3CCN(C4CC4)CC3)C2)nc1Nc1ccc(C(=O)N2CCOCC2)cc1` [Example 32, (R)-3-(3-(1-cyclopropylpiperidine-4-carboxamido)piperidin-1-yl)-5-(4-(morpholine-4-carbonyl)phenylamino)-1,2,4-triazine-6-carboxamide], for which the IC50 was 10 to 100 nM.
With `NC(=O)c1nnc(N2CCC[C@@H](NC(=O)C3CCN(C4CCCC4)CC3)C2)nc1Nc1ccc(C(=O)N2CCOCC2)cc1` [Example 33, (R)-3-(3-(1-cyclopentylpiperidine-4-carboxamido)piperidin-1-yl)-5-(4-(morpholine-4-carbonyl)phenylamino)-1,2,4-triazine-6-carboxamide], the IC50 was in the range of 10 to 100 nM.
For `NC(=O)c1nnc(N2CCC[C@@H](NC(=O)N3CCCC3)C2)nc1Nc1ccc(C(=O)N2CCOCC2)cc1` [Example 35, (R)-5-(4-(morpholine-4-carbonyl)phenylamino)-3-(3-(pyrrolidine-1-carboxamido)piperidin-1-yl)-1,2,4-triazine-6-carboxamide], the IC50 is 10 to 100 nM.
Regarding `NC(=O)c1nnc(N2CCC[C@@H](NC(=O)N3CCC(N4CCCCC4)CC3)C2)nc1Nc1ccc(C(=O)N2CCOCC2)cc1` [Example 37, (R)—N-(1-(6-carbamoyl-5-(4-(morpholine-4-carbonyl)phenylamino)-1,2,4-triazin-3-yl)piperidin-3-yl)-1,4′-bipiperidine-1′-carboxamide], the IC50 was 10 to 100 nM.
On the same count and under the same terms, in the case of `NC(=O)c1nnc(N2CCC[C@@H](NC(=O)N3CCOCC3)C2)nc1Nc1ccc(C(=O)N2CCOCC2)cc1` [Example 38, (R)—N-(1-(6-carbamoyl-5-(4-(morpholine-4-carbonyl)phenylamino)-1,2,4-triazin-3-yl)piperidin-3-yl)morpholine-4-carboxamide] it was 10 to 100 nM; in that of `CN(C(=O)N[C@@H]1CCCN(c2nnc(C(N)=O)c(Nc3ccc(C(=O)N4CCOCC4)cc3)n2)C1)c1ccccc1` [Example 39, (R)-3-(3-(3-methyl-3-phenylureido)piperidin-1-yl)-5-(4-(morpholine-4-carbonyl)phenylamino)-1,2,4-triazine-6-carboxamide], 10 to 100 nM; in that of `NC(=O)c1nnc(N2CCC[C@@H](NS(=O)(=O)c3ccccc3)C2)nc1Nc1ccc(C(=O)N2CCOCC2)cc1` [Example 41, (R)-5-(4-(morpholine-4-carbonyl)phenylamino)-3-(3-(phenylsulfonamido)piperidin-1-yl)-1,2,4-triazine-6-carboxamide], less than 10 nM.
Turning to `NC(=O)c1nnc(N2CCC[C@@H](N3CCCC3=O)C2)nc1Nc1ccc(C(=O)N2CCOCC2)cc1` [Example 44, (R)-5-(4-(morpholine-4-carbonyl)phenylamino)-3-(3-(2-oxopyrrolidin-1-yl)piperidin-1-yl)-1,2,4-triazine-6-carboxamide], the IC50 fell in the range of 10 to 100 nM.
For the compound `NC(=O)c1nnc(N2CCC[C@@H](Oc3nccc4ccccc34)C2)nc1Nc1ccc(C(=O)N2CCOCC2)cc1` [Example 45, (R)-3-(3-(isoquinolin-1-yloxy)piperidin-1-yl)-5-(4-(morpholine-4-carbonyl)phenylamino)-1,2,4-triazine-6-carboxamide], the IC50 was 100 to 1000 nM.
The same measure, in the same setting: with `CC(C)OC(=O)NN(C(=O)OC(C)C)[C@@H]1CCCN(c2nnc(C(N)=O)c(Nc3ccc(C(=O)N4CCOCC4)cc3)n2)C1` [Example 46, (R)-diisopropyl 1-(1-(6-carbamoyl-5-(4-(morpholine-4-carbonyl)phenylamino)-1,2,4-triazin-3-yl)piperidin-3-yl)hydrazine-1,2-dicarboxylate] the figure was 10 to 100 nM.
Consider `NC(=O)c1nnc(N2CCC[C@@H](n3ccc4cc(C5CC5)cc(F)c4c3=O)C2)nc1Nc1ccc(C(=O)N2CCOCC2)cc1` [Example 47, (R)-3-(3-(6-cyclopropyl-8-fluoro-1-oxoisoquinolin-2(1H)-yl)piperidin-1-yl)-5-(4-(morpholine-4-carbonyl)phenylamino)-1,2,4-triazine-6-carboxamide], for which the IC50 is less than 10 nM.
Take `NC(=O)c1nnc(N2CCC[C@@H](Oc3nccc4cc(C5CC5)cc(F)c34)C2)nc1Nc1ccc(C(=O)N2CCOCC2)cc1` [Example 48, (R)-3-(3-(6-cyclopropyl-8-fluoroisoquinolin-1-yloxy)piperidin-1-yl)-5-(4-(morpholine-4-carbonyl)phenylamino)-1,2,4-triazine-6-carboxamide]: the concentration for half-maximal inhibition (IC50) lay within 100 to 1000 nM.
As to `CC(C)(C)c1ccc(C(=O)N[C@@H]2CCN(c3nnc(C(N)=O)c(Nc4ccc(C(=O)N5CCOCC5)cc4)n3)C2)cc1` [Example 49, (R)-3-(3-(4-tert-butylbenzamido)pyrrolidin-1-yl)-5-(4-(morpholine-4-carbonyl)phenylamino)-1,2,4-triazine-6-carboxamide], the 50% inhibitory concentration (IC50) is 100 to 1000 nM.
In the case of `NC(=O)c1nnc(N2CC[C@@H](NC(=O)c3ccccc3)C2)nc1Nc1ccc(C(=O)N2CCOCC2)cc1` [Example 50, (R)-3-(3-benzamidopyrrolidin-1-yl)-5-(4-(morpholine-4-carbonyl)phenylamino)-1,2,4-triazine-6-carboxamide], the IC50 lay in the range of 100 to 1000 nM.
For the compound `NC(=O)c1nnc(N2CC[C@@H](NC(=O)C(F)(F)F)C2)nc1Nc1ccc(C(=O)N2CCOCC2)cc1` [Example 51, (R)-5-(4-(morpholine-4-carbonyl)phenylamino)-3-(3-(2,2,2-trifluoroacetamido)pyrrolidin-1-yl)-1,2,4-triazine-6-carboxamide], the IC50 lay within 100 to 1000 nM.
Turning to `CC(C)(C)c1ccc(C(=O)N[C@@H]2CCCN(c3nnc(C(N)=O)c(Nc4cncc(F)c4)n3)C2)cc1` [Example 52, (R)-3-(3-(4-tert-butylbenzamido)piperidin-1-yl)-5-(5-fluoropyridin-3-ylamino)-1,2,4-triazine-6-carboxamide], the IC50 was 100 to 1000 nM.
With `Cc1ccc(Nc2nc(N3CCC[C@@H](NC(=O)c4ccc(C(C)(C)C)cc4)C3)nnc2C(N)=O)cc1` [Example 53, (R)-3-(3-(4-tert-butylbenzamido)piperidin-1-yl)-5-(p-tolylamino)-1,2,4-triazine-6-carboxamide], the half-inhibitory concentration (IC50) fell in the range of 1000 to 10000 nM.
With `Cc1cccc(Nc2nc(N3CCC[C@@H](NC(=O)c4ccc(C(C)(C)C)cc4)C3)nnc2C(N)=O)c1` [Example 54, (R)-3-(3-(4-tert-butylbenzamido)piperidin-1-yl)-5-(m-tolylamino)-1,2,4-triazine-6-carboxamide], the IC50 was in the range of 1000 to 10000 nM.
As to `CC(C)(C)c1ccc(C(=O)N[C@@H]2CCCN(c3nnc(C(N)=O)c(Nc4ccc(S(C)(=O)=O)cc4)n3)C2)cc1` [Example 55, (R)-3-(3-(4-tert-butylbenzamido)piperidin-1-yl)-5-(4-(methylsulfonyl)phenylamino)-1,2,4-triazine-6-carboxamide], the IC50 was less than 10 nM.
For `CC(C)(C)c1ccc(C(=O)N[C@@H]2CCCN(c3nnc(C(N)=O)c(Nc4ccc(-c5ncccn5)cc4)n3)C2)cc1` [Example 56, (R)-3-(3-(4-tert-butylbenzamido)piperidin-1-yl)-5-(4-(pyrimidin-2-yl)phenylamino)-1,2,4-triazine-6-carboxamide], the IC50 lay in the range of 100 to 1000 nM.

(Values after US9656988B2 (Pharmacyclics LLC, priority 2013, dated 2017).)
